Data reported in US9822147B2, “Methods of treating ophthalmic diseases using NPR-B agonists” (priority 2009, dated 2017).

How the values were obtained:
[1] = system: human renal carcinoma cells; conditions: 100 μM; cited from earlier work
chondrocytes = conditions: CNP 10 to 100 pM, at the highest dose; cited from earlier work
rabbit eyes = test: Efficacy in the rabbit: intraocular pressure (IOP) after a single topical ocular drop; type: in vivo; conditions: dose 300 ug topical ocular, single 30 μL drop, up to 4 hr post dose, 1% as suspension (+) or solution (++) per mark on label
Description: A single 30 μL drop of a test item formulation was administered to rabbit eyes (n=8 to 10).
Intraocular pressure (IOP) was assessed in each eye at 0 hr, just prior to dosing, and again hourly for up to 4 hr post dose. The efficacy of a given formulation was determined based on the difference between the pretreatment TOP readings at 0 hr and the post treatment readings. A maximum percent reduction in IOP greater than 15% was noted by the “+” symbol. A maximum IOP reduction of less than 15% was assigned the “−” symbol.

[2] = system: small-cell lung cancer cells; conditions: 100 μM; cited from earlier work
NPR-B receptor = target: T1, NPR-B receptor (Mus musculus, UniProt Q6VVW5); conditions: AtT-20 cells; cited from earlier work
T1 construct: the only natriuretic receptor present on the cell surface was the NPR-B receptor; host or cells: AtT-20 pituitary tumor cells (endogenous receptor)
T1 sequence (Q6VVW5 17-1047): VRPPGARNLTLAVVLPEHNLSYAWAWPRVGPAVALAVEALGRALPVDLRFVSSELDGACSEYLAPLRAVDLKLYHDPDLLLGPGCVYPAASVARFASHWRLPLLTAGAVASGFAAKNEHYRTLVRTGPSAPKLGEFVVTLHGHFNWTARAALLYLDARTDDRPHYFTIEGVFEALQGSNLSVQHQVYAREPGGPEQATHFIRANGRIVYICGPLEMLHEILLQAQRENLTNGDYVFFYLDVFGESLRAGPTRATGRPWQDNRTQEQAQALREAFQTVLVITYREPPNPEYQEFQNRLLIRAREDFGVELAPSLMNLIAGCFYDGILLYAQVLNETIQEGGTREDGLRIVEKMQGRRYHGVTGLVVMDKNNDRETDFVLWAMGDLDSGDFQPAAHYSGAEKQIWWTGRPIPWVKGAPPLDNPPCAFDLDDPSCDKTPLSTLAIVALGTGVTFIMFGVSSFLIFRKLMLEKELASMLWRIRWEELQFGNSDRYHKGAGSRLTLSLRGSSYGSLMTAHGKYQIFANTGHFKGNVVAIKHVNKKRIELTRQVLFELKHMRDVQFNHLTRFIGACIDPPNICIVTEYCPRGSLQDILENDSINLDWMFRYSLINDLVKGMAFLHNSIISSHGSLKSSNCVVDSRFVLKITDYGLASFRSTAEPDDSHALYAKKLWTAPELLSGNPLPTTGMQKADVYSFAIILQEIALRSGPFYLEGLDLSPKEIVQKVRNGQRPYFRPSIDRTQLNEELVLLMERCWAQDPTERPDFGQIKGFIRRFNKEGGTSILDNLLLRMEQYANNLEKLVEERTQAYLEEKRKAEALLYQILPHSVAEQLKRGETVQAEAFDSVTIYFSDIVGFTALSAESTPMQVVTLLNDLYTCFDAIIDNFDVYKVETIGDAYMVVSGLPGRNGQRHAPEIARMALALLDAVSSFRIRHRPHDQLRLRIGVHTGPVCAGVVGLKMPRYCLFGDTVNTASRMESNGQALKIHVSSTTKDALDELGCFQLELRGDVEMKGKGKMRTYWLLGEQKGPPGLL

For CC[C@H](C)[C@@H]1NC(=O)[C@H](CCCNC(=N)N)NC(=O)[C@H](CC(=O)O)NC(=O)[C@H](CC(C)C)NC(=O)[C@H](CCCCN)NC(=O)[C@H](CC(C)C)NC(=O)CNC(=O)[C@H](Cc2ccccc2)NC(=O)[C@@H](NC(=O)CNC(=O)[C@H](CCCCN)NC(=O)[C@H](CO)NC(=O)[C@H](CC(C)C)NC(=O)CN)CSSC[C@@H](C(=O)O)NC(=O)CNC(=O)[C@H](CC(C)C)NC(=O)CNC(=O)[C@H](CO)NC(=O)[C@H](CCSC)NC(=O)[C@H](CO)NC(=O)CNC1=O [CNP, C-type natriuretic peptide], the “decrease in cell number of human renal carcinoma cells” value [1] is given as 10%, the “increase in cellularity (chondrocyte proliferation)” value (chondrocytes) is given as “up to 43%” and the “RIOP, maximum percent reduction in IOP” value (rabbit eyes) is given as “− (− IOP reduction <15%)”. For the same compound, the “decrease in the number of small-cell lung cancer cells” value [2] was 39% and the “stimulation of cGMP production” value (NPR-B receptor) was “up to 200 fold”.
